Columns and labels:
Conditions in all cases: 48 h
SEM cells [1] = test: AUC of viability dose-response curve (% viability x log10 dose units); higher = less sensitive
Outline: (§1)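 In 1536-well plates, leukemia cells adapted to each medium (500 or 1000 cells/well) were exposed for 48 h at 37°C to library compounds in DMSO across 11 threefold doses, 47 μM down to 0.79 nM. Viability was read by CellTiter-Glo One luminescence and normalised per plate to DMSO and cell-free wells. A four-parameter log-logistic fit over log10 doses was integrated by trapezoidal rule. This yielded the area under the curve, with over-full-viability curves scaled and quality-control failures dropped.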

NOMO1 [2] = test: as above
Outline: as §1

P12-Ichikawa [3] = test: as above
Outline: as §1

SEM cells [4] = test: cell viability relative to DMSO control; higher = less cytotoxic
Outline: (§2)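 NOMO1 or SEM cells were plated at 500 cells/well and P12-Ichikawa cells at 1000 cells/well in 1536-well plates (5 μl), after each leukemia line had been adapted for at least four passages in each medium. Pin dosing delivered library compounds in DMSO at 11 threefold concentrations, 47 μM to 0.79 nM. CellTiter-Glo One luminescence was read after 48 h at 37°C. Viability is reported as a per-plate percentage of DMSO wells, with cell-free wells as background.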

NOMO1 [5] = test: as above
Outline: as §2

P12-Ichikawa [6] = test: as above
Outline: as §2

COc1ccc2c(c1)c(CC(=O)OCC(=O)O)c(C)n2C(=O)c1ccc(Cl)cc1
AUC of viability dose-response curve
Conditions | NOMO1 [2] | P12-Ichikawa [3] | SEM cells [1]
HPLM + 10% dialyzed FBS | 468 | 458 | 470
RPMI 5 mM glucose + 10% FBS | 439 | 436 | 432
RPMI 5 mM glucose + 10% dialyzed FBS | 463 | 450 | 454

cell viability [%]
Conditions | NOMO1 [5] | P12-Ichikawa [6] | SEM cells [4]
HPLM + 10% dialyzed FBS, 0.000781 µM | 123 | 119 | 109
HPLM + 10% dialyzed FBS, 0.00234 µM | 131 | 126 | 114
HPLM + 10% dialyzed FBS, 0.00702 µM | 122 | 118 | 111
HPLM + 10% dialyzed FBS, 0.0211 µM | 136 | 113 | 110
HPLM + 10% dialyzed FBS, 0.0632 µM | 117 | 116 | 112
HPLM + 10% dialyzed FBS, 0.19 µM | 131 | 114 | 110
HPLM + 10% dialyzed FBS, 0.569 µM | 128 | 112 | 119
HPLM + 10% dialyzed FBS, 1.71 µM | 114 | 118 | 102
HPLM + 10% dialyzed FBS, 5.12 µM | 123 | 112 | 113
HPLM + 10% dialyzed FBS, 15.4 µM | 120 | 116 | 109
HPLM + 10% dialyzed FBS, 46.1 µM | 123 | 108 | 106
RPMI 5 mM glucose + 10% FBS, 0.000781 µM | – | – | 121
RPMI 5 mM glucose + 10% FBS, 0.00234 µM | – | – | 126
RPMI 5 mM glucose + 10% FBS, 0.00702 µM | – | – | 121
RPMI 5 mM glucose + 10% FBS, 0.0211 µM | – | – | 120
RPMI 5 mM glucose + 10% FBS, 0.0632 µM | – | – | 113
RPMI 5 mM glucose + 10% FBS, 0.19 µM | – | – | 111
RPMI 5 mM glucose + 10% FBS, 0.569 µM | – | – | 109
RPMI 5 mM glucose + 10% FBS, 1.71 µM | – | – | 99.8
RPMI 5 mM glucose + 10% FBS, 5.12 µM | – | – | 113
RPMI 5 mM glucose + 10% FBS, 15.4 µM | – | – | 98.4
RPMI 5 mM glucose + 10% FBS, 46.1 µM | – | – | 102
RPMI 5 mM glucose + 10% dialyzed FBS, 0.000781 µM | 112 | 120 | 119
RPMI 5 mM glucose + 10% dialyzed FBS, 0.00234 µM | 137 | 125 | 131
RPMI 5 mM glucose + 10% dialyzed FBS, 0.00702 µM | 110 | 116 | 123
RPMI 5 mM glucose + 10% dialyzed FBS, 0.0211 µM | 142 | 139 | 123
RPMI 5 mM glucose + 10% dialyzed FBS, 0.0632 µM | 117 | 116 | 116
RPMI 5 mM glucose + 10% dialyzed FBS, 0.19 µM | 133 | 119 | 116
RPMI 5 mM glucose + 10% dialyzed FBS, 0.569 µM | 120 | 120 | 128
RPMI 5 mM glucose + 10% dialyzed FBS, 1.71 µM | 135 | 113 | 110
RPMI 5 mM glucose + 10% dialyzed FBS, 5.12 µM | 115 | 115 | 112
RPMI 5 mM glucose + 10% dialyzed FBS, 15.4 µM | 123 | 113 | 113
RPMI 5 mM glucose + 10% dialyzed FBS, 46.1 µM | 106 | 107 | 100

CCO[C@@H]1OC(=O)C[C@@H]1NC(=O)[C@@H]1CCCN1C(=O)[C@@H](NC(=O)c1ccc(N)c(Cl)c1)C(C)(C)C
AUC of viability dose-response curve
Conditions | NOMO1 [2] | P12-Ichikawa [3] | SEM cells [1]
HPLM + 10% dialyzed FBS | 328 | 345 | 453
RPMI 5 mM glucose + 10% FBS | 305 | 356 | 477
RPMI 5 mM glucose + 10% dialyzed FBS | 318 | 374 | 446

cell viability [%], SEM cells [4]
Conditions | HPLM + 10% dialyzed FBS | RPMI 5 mM glucose + 10% dialyzed FBS
0.000781 µM | 106 | 103
0.00234 µM | 121 | 126
0.00702 µM | 124 | 125
0.0211 µM | 109 | 115
0.0632 µM | 145 | 140
0.19 µM | 138 | 158
0.569 µM | 119 | 146
1.71 µM | 150 | 156
5.12 µM | 151 | 126
15.4 µM | 142 | 146
46.1 µM | 111 | 125

CC(C)N(CC[C@H](c1ccccc1)c1cc(CO)ccc1O)C(C)C
AUC of viability dose-response curve
Conditions | NOMO1 [2] | P12-Ichikawa [3] | SEM cells [1]
HPLM + 10% dialyzed FBS | 455 | 464 | 462
RPMI 5 mM glucose + 10% FBS | 468 | 461 | 473
RPMI 5 mM glucose + 10% dialyzed FBS | 462 | 466 | 461

cell viability [%], HPLM + 10% dialyzed FBS
Conditions | P12-Ichikawa [6] | SEM cells [4]
0.000781 µM | 127 | 106
0.00234 µM | 123 | 118
0.00702 µM | 120 | 125
0.0211 µM | 126 | 141
0.0632 µM | 139 | 131
0.19 µM | 137 | 139
0.569 µM | 140 | 129
1.71 µM | 138 | 134
5.12 µM | 129 | 151
15.4 µM | 128 | 135
46.1 µM | 135 | 119

Source: the supplement of paper PMC11451515
